Measured values: ChEMBL document CHEMBL4177533, “Identification and Synthesis of Mycalol Analogues with Improved Potency against Anaplastic Thyroid Carcinoma Cell Lines” (J Nat Prod, 2017)

Tests used:
[1] = Cytotoxicity against human FRO cells assessed as reduction in cell viability incubated for 72 hrs by Cell-titer 96 aqueous one assay; assay type: functional, cell-based
8505C = assay: Cytotoxicity against human 8505C cells assessed as reduction in cell viability incubated for 72 hrs by Cell-titer 96 aqueous one assay; assay type: functional, cell-based
[2] = Cytotoxicity against human ACT1 cells assessed as reduction in cell viability incubated for 72 hrs by Cell-titer 96 aqueous one assay; assay type: functional, cell-based
[3] = Potency index, ratio of IC50 for mycalol to IC50 for test compound against human FRO cells assessed as reduction in cell viability incubated for 72 hrs by Cell-titer 96 aqueous one assay; assay type: functional
[4] = Cytotoxicity against human FRO cells assessed as reduction in cell viability in presence of shHMGA1 incubated for 72 hrs by Cell-titer 96 aqueous one assay; assay type: functional, cell-based
[5] = Cytotoxicity against human FRTL5 cells assessed as reduction in cell viability incubated for 72 hrs by Cell-titer 96 aqueous one assay; assay type: cell-based; details: FRTL-5, 72 h

SMILES: CCCCC[C@H](CCCCCCCCCC[C@H](O)[C@H](O)CC[C@H](O)[C@H](O)CCOC[C@H](O)CO)OC(C)=O
- IC50 [1]: 16 µM

SMILES: CCCCCCC[C@H](CCCCCCCCCC[C@H](O)[C@H](O)CC[C@H](O)[C@H](O)CCOC[C@H](O)CO)OC(=O)C[C@H](C)O
- IC50 [1]: 16 µM

SMILES: CCCCCCCC[C@H](CCCCCCCCCC[C@H](O)[C@H](O)CC[C@H](O)[C@H](O)CCOC[C@H](O)CO)OC(=O)C[C@H](C)O
- IC50 [1]: 20 µM

SMILES: CCCCCCCCC[C@H](CCCCCCCCCC[C@H](O)[C@H](O)CC[C@H](O)[C@H](O)CCOC[C@H](O)CO)OC(=O)C[C@H](C)O
- IC50 [1]: 4.7 µM

SMILES: CCCCCCC[C@H](CCCCCCCCCC[C@H](O)[C@H](O)CC[C@H](O)[C@H](O)CCOC[C@H](O)CO)OC(C)=O (stereo in doubt; form 1)
- IC50 (8505C; Homo sapiens, 8505C, 72 h): 2.6 µM
- IC50 ([2]; Homo sapiens, 72 h): 4.8 µM
- IC50 [1]: 2.3 µM
- Ratio IC50 [3]: 6
- IC50 ([4]; Homo sapiens, 72 h): 3.3 µM

SMILES: CCCCCCC[C@H](CCCCCCCCCC[C@H](O)[C@H](O)CC[C@H](O)[C@H](O)CCOC[C@H](O)CO)OC(C)=O (stereo in doubt; form 2)
- IC50 (8505C; 8505c): 2.1 µM
- IC50 [2]: 5.1 µM
- IC50 [5]: > 40 µM
- IC50 [4]: 3.4 µM
